According to ChEMBL document CHEMBL1201862, “PubChem BioAssay data set” (2004):
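Tested at 5 concentrations; 48 h exposure; 96-well plates; endpoints linearly interpolated, else capped at highest concentration. The concentration for 50% growth inhibition is given as GI50.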 Calls of active or inactive are those of the source. Cut-off read from the data, not from the text of the source: active = GI50 up to about 1.1 µM and inactive = higher.

Assays:
Test in all cases: NCI anticancer screen, dose series, 48 h
NCI/ADR-RES = test system: NCI/ADR-RES
CCRF-CEM = test system: CCRF-CEM
OVCAR-3 = test system: OVCAR-3
SK-MEL-28 = test system: SK-MEL-28
HOP-62 = test system: HOP-62
Malme-3M = test system: Malme-3M
SK-MEL-5 = test system: SK-MEL-5
SW-620 = test system: SW-620
LOX IMVI = test system: LOX IMVI
MDA-N = test system: MDA-N
A549 = test system: A549
MCF7 = test system: MCF7
RXF 393 = test system: RXF 393
OVCAR-5 = test system: OVCAR-5
NCI-H522 = test system: NCI-H522
HCT-15 = test system: HCT-15
COLO 205 = test system: COLO 205
TK-10 = test system: TK-10
IGROV-1 = test system: IGROV-1
HT-29 = test system: HT-29
SK-MEL-2 = test system: SK-MEL-2
CAKI-1 = test system: CAKI-1
UACC-62 = test system: UACC-62
KM12 = test system: KM12
M14 = test system: M14
RPMI-8226 = test system: RPMI-8226
SNB-19 = test system: SNB-19
UACC-257 = test system: UACC-257
UO-31 = test system: UO-31
SN12C = test system: SN12C
MDA-MB-231 = test system: MDA-MB-231
HCC 2998 = test system: HCC 2998
K562 = test system: K562
BT-549 = test system: BT-549
A498 = test system: A498
SK-OV-3 = test system: SK-OV-3
EKVX = test system: EKVX
HCT-116 = test system: HCT-116
SF-268 = test system: SF-268
SF-539 = test system: SF-539
PC-3 = test system: PC-3
MOLT-4 = test system: MOLT-4
U-251 = test system: U-251
OVCAR-8 = test system: OVCAR-8
MDA-MB-435 = test system: MDA-MB-435
SR = test system: SR
SF-295 = test system: SF-295
DU-145 = test system: DU-145
HL-60 = test system: HL-60
786-0 = test system: 786-0
OVCAR-4 = test system: OVCAR-4
NCI-H23 = test system: NCI-H23
ACHN = test system: ACHN
T47D = test system: T47D
NCI-H226 = test system: NCI-H226
SNB-75 = test system: SNB-75
HOP-92 = test system: HOP-92
NCI-H460 = test system: NCI-H460
Hs-578T = test system: Hs-578T

COC(=O)[C@H](NC(=O)OC(C)(C)C)[C@H]1COC(C)(C)O1
GI50 (NCI/ADR-RES): > 100000 nM (inactive) | GI50 (CCRF-CEM): > 100000 nM (inactive) | GI50 (OVCAR-3): > 100000 nM (inactive) | GI50 (SK-MEL-28): > 100000 nM (inactive) | GI50 (HOP-62): > 100000 nM (inactive) | GI50 (Malme-3M): 40100 nM (inactive) | GI50 (SK-MEL-5): > 100000 nM (inactive) | GI50 (SW-620): > 100000 nM (inactive) | GI50 (LOX IMVI): > 100000 nM (inactive) | GI50 (MDA-N): > 100000 nM (inactive) | GI50 (A549): > 100000 nM (inactive) | GI50 (MCF7): > 100000 nM (inactive) | GI50 (RXF 393): > 100000 nM (inactive) | GI50 (OVCAR-5): > 100000 nM (inactive) | GI50 (NCI-H522): > 100000 nM (inactive) | GI50 (HCT-15): > 100000 nM | GI50 (COLO 205): > 100000 nM (inactive) | GI50 (TK-10): > 100000 nM (inactive) | GI50 (IGROV-1): > 100000 nM (inactive) | GI50 (HT-29): > 100000 nM (inactive) | GI50 (SK-MEL-2): > 100000 nM (inactive) | GI50 (CAKI-1): > 100000 nM (inactive) | GI50 (UACC-62): > 100000 nM (inactive) | GI50 (KM12): > 100000 nM (inactive) | GI50 (M14): > 100000 nM (inactive) | GI50 (RPMI-8226): > 100000 nM (inactive) | GI50 (SNB-19): > 100000 nM (inactive) | GI50 (UACC-257): > 100000 nM (inactive) | GI50 (UO-31): > 100000 nM (inactive) | GI50 (SN12C): > 100000 nM (inactive) | GI50 (MDA-MB-231): > 100000 nM (inactive) | GI50 (HCC 2998): > 100000 nM (inactive) | GI50 (K562): > 100000 nM (inactive) | GI50 (BT-549): > 100000 nM (inactive) | GI50 (A498): > 100000 nM (inactive) | GI50 (SK-OV-3): > 100000 nM (inactive) | GI50 (EKVX): > 100000 nM (inactive) | GI50 (HCT-116): > 100000 nM (inactive) | GI50 (SF-268): > 100000 nM (inactive) | GI50 (SF-539): > 100000 nM (inactive) | GI50 (PC-3): > 100000 nM (inactive) | GI50 (MOLT-4): > 100000 nM (inactive) | GI50 (U-251): > 100000 nM (inactive) | GI50 (OVCAR-8): > 100000 nM (inactive) | GI50 (MDA-MB-435): > 100000 nM (inactive) | GI50 (SR): > 100000 nM (inactive) | GI50 (SF-295): > 100000 nM (inactive) | GI50 (DU-145): > 100000 nM (inactive) | GI50 (HL-60): > 100000 nM (inactive) | GI50 (786-0): > 100000 nM (inactive) | GI50 (OVCAR-4): > 100000 nM (inactive) | GI50 (NCI-H23): > 100000 nM (inactive) | GI50 (ACHN): > 100000 nM (inactive)

Oc1cc(-c2ccccc2Cl)nc2cc3c(cc12)OCO3
GI50 (NCI/ADR-RES): 57.5 nM (active) | GI50 (CCRF-CEM): 42.2 nM (active) | GI50 (OVCAR-3): 60.8 nM (active) | GI50 (SK-MEL-28): 63.8 nM (active) | GI50 (HOP-62): 132 nM (active) | GI50 (T47D): 26600 nM (inactive) | GI50 (Malme-3M): 59.8 nM (active) | GI50 (SK-MEL-5): 43.5 nM (active) | GI50 (NCI-H226): 130 nM (active) | GI50 (SW-620): 69.8 nM (active) | GI50 (LOX IMVI): 54.1 nM (active) | GI50 (MDA-N): 15.8 nM (active) | GI50 (A549): 156 nM (active) | GI50 (SNB-75): 30700 nM (inactive) | GI50 (MCF7): 51.8 nM (active) | GI50 (RXF 393): 41.6 nM (active) | GI50 (OVCAR-5): 1090 nM (active) | GI50 (NCI-H522): 65.3 nM (active) | GI50 (HCT-15): 37.1 nM | GI50 (COLO 205): 50.7 nM (active) | GI50 (TK-10): 731 nM (active) | GI50 (IGROV-1): 173 nM (active) | GI50 (HT-29): 67.6 nM (active) | GI50 (SK-MEL-2): 71.9 nM (active) | GI50 (CAKI-1): 57.3 nM (active) | GI50 (UACC-62): 57.4 nM (active) | GI50 (KM12): 48.6 nM (active) | GI50 (M14): 110 nM (active) | GI50 (RPMI-8226): 101 nM (active) | GI50 (HOP-92): 102 nM (active) | GI50 (SNB-19): 144 nM (active) | GI50 (NCI-H460): 71.9 nM (active) | GI50 (UACC-257): 443 nM (active) | GI50 (UO-31): 224 nM (active) | GI50 (Hs-578T): 440 nM (active) | GI50 (SN12C): 261 nM (active) | GI50 (MDA-MB-231): 143 nM (active) | GI50 (HCC 2998): 144 nM (active) | GI50 (K562): 39.9 nM (active) | GI50 (A498): 116 nM (active) | GI50 (SK-OV-3): 170 nM (active) | GI50 (EKVX): 155 nM (active) | GI50 (HCT-116): 52.8 nM (active) | GI50 (SF-268): 1640 nM (inactive) | GI50 (SF-539): 103 nM (active) | GI50 (PC-3): 45.1 nM (active) | GI50 (MOLT-4): 123 nM (active) | GI50 (U-251): 73.6 nM (active) | GI50 (OVCAR-8): 198 nM (active) | GI50 (MDA-MB-435): 14.6 nM (active) | GI50 (SR): 56.2 nM (active) | GI50 (SF-295): 107 nM (active) | GI50 (DU-145): 121 nM (active) | GI50 (HL-60): 20.7 nM (active) | GI50 (786-0): 320 nM (active) | GI50 (OVCAR-4): 2760 nM (inactive) | GI50 (NCI-H23): 122 nM (active) | GI50 (ACHN): 731 nM (active)
